From BindingDB's records for doi:10.7270/Q2833QWM (D3R/Abbott, 2015)

The molecules below were run against T1, tRNA (guanine-N(1)-)-methyltransferase (Haemophilus influenzae (strain ATCC 51907 / DSM 11121 / KW20 / Rd), UniProt P43912) (assay: ScintillationProximity_Assay).
T1 sequence (P43912 whole entry): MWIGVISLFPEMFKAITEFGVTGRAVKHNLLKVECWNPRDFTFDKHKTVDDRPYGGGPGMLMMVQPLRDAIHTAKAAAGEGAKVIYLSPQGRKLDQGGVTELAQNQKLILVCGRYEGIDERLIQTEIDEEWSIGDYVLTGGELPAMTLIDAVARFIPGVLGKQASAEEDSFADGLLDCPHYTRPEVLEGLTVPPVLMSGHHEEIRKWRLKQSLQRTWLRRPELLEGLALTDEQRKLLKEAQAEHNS
From the text: ScintillationProximity_Assay

Q: `c1cc(-c2c[nH]cn2)ccn1` was tested. Which IC50 did it give?
A: 158000 nM

Q: With `NC(=O)c1ccc(NCc2ccccc2)nc1` [GTC000444A] as the molecule, how does the IC50 read?
A: 3160 nM

Q: With `NC(=O)c1ccc(N)nc1` [GTC000445A] as the molecule, how does the IC50 read?
A: 25100 nM

Q: `c1cc(-c2ncc[nH]2)ccn1` [GTC000447A] was tested. Which IC50 did it give?
A: 316000 nM

Q: Which IC50 does the source give for `Nc1nonc1C(=O)NCc1ccc(Cl)cc1` [GTC000448A] here?
A: 39800 nM

Q: For `CC(C)(C)c1cccc(C(=O)NCC2(NC(=O)c3cccc4nocc34)CCCCC2)c1` [GTC000449A], which IC50 is on record?
A: 5.01 nM

Q: How did the IC50 turn out when `CC(C)(C)c1cccc(C(=O)NCC2(NC(=O)c3cccc4nocc34)CCCC2)c1` [GTC000450A] was run?
A: 5.01 nM

Q: How did the IC50 turn out when `Cc1cccc(C(=O)NCC2(NC(=O)c3cccc4nocc34)CCCC2)c1` [GTC000451A] was run?
A: 158 nM

Q: Which IC50 does the source give for `NC(=O)c1ccc(NCc2cccc(O)c2)nc1` [GTC000452A] here?
A: 2000 nM

Q: For `CN(C)c1cccc(CNc2ccc(C(N)=O)cn2)c1` [GTC000453A], which IC50 is on record?
A: 3980 nM

Q: With `COc1ccccc1CNc1ccc(C(N)=O)cn1` [GTC000454A] as the molecule, how does the IC50 read?
A: 794 nM

Q: How did the IC50 turn out when `CN(C)c1ccccc1CNc1ccc(C(N)=O)cn1` [GTC000455A] was run?
A: 6310 nM

Q: For `Nc1nonc1C(=O)N[C@@H]1CC[C@H](O)C1` [GTC000456A], which IC50 is on record?
A: 7940 nM

Q: Which IC50 does the source give for `NC(=O)c1ccc(NC2CCCC2)nc1` [GTC000457A] here?
A: 200 nM

Q: `NC(=O)c1ccc(NCC2CCCC2)nc1` [GTC000458A] was tested. Which IC50 did it give?
A: 501 nM

Q: How did the IC50 turn out when `NC(=O)c1ccc(NCc2ccccc2O)nc1` [GTC000459A] was run?
A: 1260 nM

Q: With `NC(=O)c1ccc(N[C@@H]2CC[C@@H](O)C2)nc1` [GTC000460A] as the molecule, how does the IC50 read?
A: 200 nM

Q: `Cc1cccc(C(=O)NCCC2(CNc3ccc(C(N)=O)cn3)CCCCC2)c1` [GTC000461A] was tested. Which IC50 did it give?
A: 7940 nM

Q: `Nc1nonc1C(=O)NCC1CCCCC1` [GTC000462A] was tested. Which IC50 did it give?
A: 2000 nM

Q: With `Nc1nonc1C(=O)N1CCN(Cc2ccccn2)CC1` [GTC000463A] as the molecule, how does the IC50 read?
A: 15800 nM

Q: Which IC50 does the source give for `NC(=O)c1cnc(NC2CCCC2)nc1N` [GTC000464A] here?
A: 631 nM

Q: `Nc1nonc1C(=O)NC1CCNCC1` [GTC000465A] was tested. Which IC50 did it give?
A: 20000 nM

Q: `Nc1nonc1C(=O)N[C@@H]1C[C@H]1c1ccc(S(N)(=O)=O)cc1` [GTC000466A] was tested. Which IC50 did it give?
A: 15800 nM

Q: For `NC(=O)c1ccc(NC2CCC(c3ccccc3)C2)nc1` (stereo unspecified) [GTC000467A], which IC50 is on record?
A: 631 nM

Q: For `NC(=O)c1ccc(N[C@@H]2C[C@H](CO)[C@@H](O)C2)nc1` [GTC000468A], which IC50 is on record?
A: 1590 nM

Q: Which IC50 does the source give for `NC[C@H]1CCC[C@@H](CNc2ccc(C(N)=O)cn2)C1` [GTC000469A] here?
A: 501 nM

Q: `NC(=O)c1ccc(NCc2ccccc2N2CCOCC2)nc1` [GTC000470A] was tested. Which IC50 did it give?
A: 2000 nM

Q: How did the IC50 turn out when `CN1CCN(c2ccccc2CNc2ccc(C(N)=O)cn2)CC1` [GTC000471A] was run?
A: 794 nM

Q: For `CN1CCN(C(=O)c2nonc2N)CC1` [GTC000472A], which IC50 is on record?
A: 100000 nM

Q: For `COc1ccc(C(=O)n2ncnc2N)cc1` [GTC000473A], which IC50 is on record?
A: 2510 nM

Q: `CC(C)(C)CNc1ncc(C(N)=O)c(N)n1` [GTC000474A] was tested. Which IC50 did it give?
A: 794 nM
